Source: patent US20230329236A1, “HERBICIDAL PYRIMIDINE DERIVATIVES” (MoA Technology Limited, priority 2020, published 2023)

Tests used:
Conditions in all cases: 336 h, Table 3, post-emergence, 14±1 days post application
[1] = system: Lolium multiflorum (LOLMU); test: Post-emergence glasshouse test, visual injury, LOLMU; assay type: in vivo
Method: (§1) Seeds of a variety of test species are grown in a sandy loam soil mixture, Lolium multiflorum (LOLMU), Amaranthus retroflexus (AMARE), Echinochloa crus-gaffi (ECHCG), Veronica persica (VERPE), Glycine max (GLXMA), Oryza sativa (ORYSA), Zea mays (ZEAMX), spring wheat (TRZAS), Ipomoea hederacea (IPOHE), Ipomoea purpurea (PHBPU), Stellaria media (STEME), Solanum nigrum (SOLNI), Digitaria sanguinalis (DIGSA), Setaria italica (SETIT), Alopecurus myosuroides (ALOMY) and Avena fatua (AVEFA).
(§2) After sowing, at growth stage BBCH 12-14 (post-emergence), the plants are sprayed with an aqueous spray solution derived from the formulation of the technical active ingredient in acetone/water (50:50) solution containing 0.5% Tween 20 (polyoxyethlyene sorbitan monolaureate, CAS RN 9005-64-5). The test compounds are applied at the required concentration of active ingredient in g/ha. The test plants are then grown in a glasshouse under controlled environmental conditions and watered regularly as required. After 14±1 days post application (for post-emergence test), the test is evaluated by assessing the percentage damage caused to the plants in comparison with the untreated plots. The biological activities for post-emergence testing are shown below (Table 3 and Table 4) as a % visual injury.

[2] = system: Echinochloa crus-gaffi (ECHCG); test: Post-emergence glasshouse test, visual injury, ECHCG; assay type: in vivo, Echinochloa crus-galli
Method: as §1, §2

[3] = system: Veronica persica (VERPE); test: Post-emergence glasshouse test, visual injury, VERPE; assay type: in vivo
Method: as §1, §2

[4] = system: Amaranthus retroflexus (AMARE); test: Post-emergence glasshouse test, visual injury, AMARE; assay type: in vivo
Method: as §1, §2

SMILES: Cc1cc(-c2cnc(NCc3ccc(F)cc3)nc2C(C)(C)C)on1 [Compound 47]
- pest or weed control at 500 g/ha [1]: 0%
- pest or weed control at 500 g/ha [2]: 50%
- pest or weed control at 500 g/ha [3]: 80%
- pest or weed control at 500 g/ha [4]: 40%

SMILES: Cc1cc(-c2cnc(NCC3CCCO3)nc2-c2ccc(C)o2)on1 (stereo not drawn) [Compound 86]
- pest or weed control at 1000 g/ha ([1]; 1000 g/ha): 0%
- pest or weed control at 1000 g/ha ([2]; 1000 g/ha): 0%
- pest or weed control at 1000 g/ha ([3]; 1000 g/ha): 70%
- pest or weed control at 1000 g/ha ([4]; 1000 g/ha): 0%

SMILES: Cc1cc(-c2cnc(N3Cc4ccccc4C3=N)nc2C(C)C)on1 [Compound 121]
- pest or weed control at 125 g/ha [1]: 0%
- pest or weed control at 125 g/ha [2]: 20%
- pest or weed control at 125 g/ha [3]: 0%
- pest or weed control at 125 g/ha [4]: 30%

SMILES: Cc1cc(-c2cnc(N(C)C)nc2-c2ccc(C)o2)on1 [Compound 43]
- pest or weed control at 500 g/ha [1]: 40%
- pest or weed control at 500 g/ha [2]: 60%
- pest or weed control at 500 g/ha [3]: 0%
- pest or weed control at 500 g/ha [4]: 50%

SMILES: Cc1cc(-c2cnc(N(C)C3CCCC3)nc2C(F)(F)F)on1 [Compound 112]
- pest or weed control at 125 g/ha [1]: 20%
- pest or weed control at 125 g/ha [2]: 0%
- pest or weed control at 125 g/ha [3]: 0%
- pest or weed control at 125 g/ha [4]: 20%

SMILES: Cc1cc(-c2cnc(NCC3CCCCC3)nc2C(C)C)on1 [Compound 108]
- pest or weed control at 125 g/ha [1]: 0%
- pest or weed control at 125 g/ha [2]: 20%
- pest or weed control at 125 g/ha [3]: 50%
- pest or weed control at 125 g/ha [4]: 50%

SMILES: Cc1cc(-c2cnc(NCc3cccnc3)nc2-c2ccc(C)o2)on1 [Compound 22]
- pest or weed control at 500 g/ha [1]: 0%
- pest or weed control at 500 g/ha [2]: 50%
- pest or weed control at 500 g/ha [3]: 60%
- pest or weed control at 500 g/ha [4]: 60%

SMILES: Cc1cc(-c2cnc(NCc3ccccc3F)nc2C(C)C)on1 [Compound 55]
- pest or weed control at 500 g/ha [1]: 40%
- pest or weed control at 500 g/ha [2]: 70%
- pest or weed control at 500 g/ha [3]: 99%
- pest or weed control at 500 g/ha [4]: 100%

SMILES: Cc1cc(-c2cnc(N3CCCCCC3)nc2C(C)C)on1 [Compound 49]
- pest or weed control at 500 g/ha [1]: 0%
- pest or weed control at 500 g/ha [2]: 60%
- pest or weed control at 500 g/ha [3]: 30%
- pest or weed control at 500 g/ha [4]: 50%

SMILES: Cc1cc(-c2cnc(NCc3cccnc3)nc2C(F)(F)F)on1 [Compound 111]
- pest or weed control at 125 g/ha [1]: 10%
- pest or weed control at 125 g/ha [2]: 0%
- pest or weed control at 125 g/ha [3]: 0%
- pest or weed control at 125 g/ha [4]: 0%

SMILES: CCOCCCNc1ncc(-c2cc(C)no2)c(C(C)(C)C)n1 [Compound 40]
- pest or weed control at 500 g/ha [1]: 0%
- pest or weed control at 500 g/ha [2]: 30%
- pest or weed control at 500 g/ha [3]: 0%
- pest or weed control at 500 g/ha [4]: 70%

SMILES: Cc1cc(-c2cnc(N3CCC(C(N)=O)CC3)nc2-c2ccc(C)s2)on1 [Compound 88]
- pest or weed control at 125 g/ha [1]: 0%
- pest or weed control at 125 g/ha [2]: 20%
- pest or weed control at 125 g/ha [3]: 0%
- pest or weed control at 125 g/ha [4]: 20%

SMILES: Cc1cc(-c2cnc(NC3CCCC3)nc2C(F)F)on1 [Compound 119]
- pest or weed control at 125 g/ha [1]: 0%
- pest or weed control at 125 g/ha [2]: 0%
- pest or weed control at 125 g/ha [3]: 0%
- pest or weed control at 125 g/ha [4]: 50%

SMILES: Cc1cc(-c2cnc(N3CCN(c4ncccn4)CC3)nc2-c2ccc(C)o2)on1 [Compound 89]
- pest or weed control at 125 g/ha [1]: 5%
- pest or weed control at 125 g/ha [2]: 0%
- pest or weed control at 125 g/ha [3]: 5%
- pest or weed control at 125 g/ha [4]: 0%

SMILES: Cc1cc(-c2cnc(NC(C)(C)C)nc2C(C)C)on1 [Compound 5]
- pest or weed control at 125 g/ha [1]: 60%
- pest or weed control at 125 g/ha [2]: 70%
- pest or weed control at 125 g/ha [3]: 100%
- pest or weed control at 125 g/ha [4]: 100%

SMILES: Cc1cc(-c2cnc(NC3CC3)nc2C(F)(F)F)on1 [Compound 114]
- pest or weed control at 125 g/ha [1]: 0%
- pest or weed control at 125 g/ha [2]: 20%
- pest or weed control at 125 g/ha [3]: 70%
- pest or weed control at 125 g/ha [4]: 0%

SMILES: Cc1cc(-c2cnc(NCCc3c(C)noc3C)nc2C(C)C)on1 [Compound 62]
- pest or weed control at 500 g/ha [1]: 40%
- pest or weed control at 500 g/ha [2]: 50%
- pest or weed control at 500 g/ha [3]: 70%
- pest or weed control at 500 g/ha [4]: 70%

SMILES: Cc1cc(-c2cnc(NCCc3c(C)noc3C)nc2C2CC2)on1 [Compound 46]
- pest or weed control at 500 g/ha [1]: 60%
- pest or weed control at 500 g/ha [2]: 70%
- pest or weed control at 500 g/ha [3]: 50%
- pest or weed control at 500 g/ha [4]: 90%
